Patent US20170333391A1, “METHOD FOR DELAYING THE ONSET OF PULMONARY FIBROSIS OR TREATING PULMONARY FIBROSIS” (EVERFRONT BIOTECH INC., priority 2016, published 2017)

How the values were obtained:
[1] = test system: Rat type II alveolar cell, L2 cell line; experiment: Cell survival test (MTT analysis) under H2O2 oxidative stress; type: cell-based; settings: 24 hours, control group = 100%
Procedure: The rat type II alveolar cell, L2 cell line (ATCC® CCL149™) were seeded into a 96-well plate at a density of 5×10^3 cells/well, 48 wells in total (separated into a control group and five experimental groups, 8 wells for each group). The cells were cultured until the next day, and then the mediums were removed. Each group was respectively treated under the following conditions to conduct follow-up experiments:
(1) Control group: cells were cultured in a F-12K medium (Kaighn's Modification of Ham's F-12 Medium, ATCC® 30-2004™) for 24 hours;
(2) Group 1: cells were cultured in a F-12K medium containing H2O2 (0.1 mM) for 24 hours;
(3) Group 2: cells were cultured in a F-12K medium containing H2O2 (0.1 mM) and compound (1) (5 μg/ml) for 24 hours;
(4) Group 3: cells were cultured in a F-12K medium containing H2O2 (0.1 mM) and N-acetylcysteine (NAC) (2 mM) for 24 hours;
(5) Group 4: cells were cultured in a F-12K medium containing H2O2 (0.2 mM) and compound (1) (5 μg/ml) for 24 hours; and
(6) Group 5: cells were cultured in a F-12K medium containing H2O2 (0.2 mM) and NAC (2 mM) for 24 hours.
The mediums were removed after culturing was complete, and then each group was respectively treated under the following conditions: F-12K mediums containing 10% of 3-(4,5-Dimethylthiazol-2-yl)-2,5-diphenyltetrazolium bromide (MTT) were added into each well, and cultured for 1 hour. Thereafter, the mediums were removed, and a suitable amount of dimethyl sulfoxide (DMSO) was added into the wells. An Enzyme-Linked ImmunoSorbent Assay reader (ELISA reader) was then used for detecting the absorbance of each group at a wavelength of 595 nm (OD595nm). The average value of each group was respectively calculated (n=8), and then the result of the control group served as the basis for calculating the relative survival rates of the other groups.

BMP-7 protein [2] = experiment: BMP-7 protein expression in TGF-β1-induced NHLF, western blotting (2-2); type: cell-based, human; settings: TGF-β1-only control group = 1
Procedure: (§1) Normal Human lung fibroblasts (NHLF) were seeded into 6 cm culture dishes at a density of 2×10^5 cells/dish, comprising a control group and six experimental groups (7 dishes in total). The cells were cultured until the next day, and then the mediums were removed. Each group was respectively treated under the following conditions to conduct follow-up experiments: • (1) Positive control group: cells were cultured in a FGM-2 medium containing 1% serum and TGF-β1 (5 ng/ml) for 36 hours; • (2) Group I: cells were firstly cultured in a FGM-2 medium containing 1% serum and TGF-β1 (5 ng/ml) for 12 hours, and then compound (1) was added into the medium to provide a final concentration of 15 μg/ml; thereafter, the cells were cultured for another 24 hours; • (3) Group II: cells were firstly cultured in a FGM-2 medium containing 1% serum and TGF-β1 (5 ng/ml) for 12 hours, and then compound (1) was added into the medium to provide a final concentration of 25 μg/ml; thereafter, the cells were cultured for another 24 hours; • (4) Group III: cells were firstly cultured in a FGM-2 medium containing 1% serum and TGF-β1 (5 ng/ml) for 12 hours, and then compound (1) was added into the medium to provide a final concentration of 35 μg/ml; thereafter, the cells were cultured for another 24 hours; • (5) Group IV: cells were firstly cultured in a FGM-2 medium containing 1% serum and TGF-β1 (5 ng/ml) for 12 hours, and then the Pirfenidone was added into the medium to provide a final concentration of 100 μg/ml; thereafter, the cells were cultured for another 24 hours; • (6) Group V: cells were firstly cultured in a FGM-2 medium containing 1% serum and TGF-β1 (5 ng/ml) for 12 hours, and then the Pirfenidone was added into the medium to provide a final concentration of 250 μg/ml; thereafter, the cells were cultured for another 24 hours; and • (7) Group VI: cells were firstly cultured in a FGM-2 medium containing 1% serum and TGF-β1 (5 ng/ml) for 12 hours, and then the Pirfenidone was added into the medium to provide a final concentration of 500 μg/ml; thereafter, the cells were cultured for another 24 hours.
(§2) Thereafter, the proteins in the cells of each group were extracted, and the expressions of type I collagen, BMP-7 protein and TGF-β protein in the NHLF cells of each group were measured with western blotting. The results of the control group served as the basis for calculating the relative expression levels of the other groups.

type I collagen = experiment: Type I collagen expression in TGF-β1-induced NHLF, western blotting (2-2); type: cell-based, human; settings: TGF-β1-only control group = 1
Procedure: as §1, §2

TGF-β protein [3] = experiment: TGF-β protein expression in TGF-β1-induced NHLF, western blotting (2-2); type: cell-based, human; settings: TGF-β1-only control group = 1
Procedure: as §1, §2

p-smad2/3 protein = p-smad2/3 protein expression in TGF-β1-induced NHLF, western blotting (Example 4); type: cell-based, human; settings: uninduced control = 1, TGF-β1-only group A = 1.42
Procedure: (§3) Normal Human lung fibroblasts (NHLF) were seeded into 6 cm culture dishes at a density of 2×10^5 cells/dish, comprising a control group and five experimental groups (6 dishes in total). The cells were cultured until the next day, and then the mediums were removed. Each group was respectively treated under the following conditions to conduct follow-up experiments: • (1) Control group: cells were cultured in a FGM-2 medium containing 1% serum for 36 hours; • (2) Group A: cells were cultured in a FGM-2 medium containing 1% serum and TGF-β1 (5 ng/ml) for 36 hours; • (3) Group B: cells were firstly cultured in a FGM-2 medium containing 1% serum and TGF-β1 (5 ng/ml) for 12 hours, and then compound (1) was added into the medium to provide a final concentration of 15 μg/ml; thereafter, the cells were cultured for another 24 hours; • (4) Group C: cells were firstly cultured in a FGM-2 medium containing 1% serum and TGF-β1 (5 ng/ml) for 12 hours, and then compound (1) was added into the medium to provide a final concentration of 30 μg/ml; thereafter, the cells were cultured for another 24 hours; • (5) Group D: cells were firstly cultured in a FGM-2 medium containing 1% serum and TGF-β1 (5 ng/ml) for 12 hours, and then compound (2) was added into the medium to provide a final concentration of 100 μg/ml; thereafter, the cells were cultured for another 24 hours; and • (6) Group E: cells were firstly cultured in a FGM-2 medium containing 1% serum and TGF-β1 (5 ng/ml) for 12 hours, and then compound (2) was added into the medium to provide a final concentration of 200 μg/ml; thereafter, the cells were cultured for another 24 hours.
as §2, with “of” for “of type I collagen,”, “BMP-7 protein, TGF-β” for “BMP-7”, “p-smad2/3” for “TGF-β”

TGF-β protein [4] = experiment: TGF-β protein expression in TGF-β1-induced NHLF, western blotting (Example 4); type: cell-based, human; settings: uninduced control = 1, TGF-β1-only group A = 1.75
Procedure: as §3
as §2, with “of” for “of type I collagen,”, “BMP-7 protein, TGF-β” for “BMP-7”, “p-smad2/3” for “TGF-β”

BMP-7 protein [5] = experiment: BMP-7 protein expression in TGF-β1-induced NHLF, western blotting (Example 4); type: cell-based, human; settings: uninduced control = 1, TGF-β1-only group A = 0.19
Procedure: as §3
as §2, with “of” for “of type I collagen,”, “BMP-7 protein, TGF-β” for “BMP-7”, “p-smad2/3” for “TGF-β”

[6] = Group IV: TGF-β1 5 ng/ml 12 h, then Pirfenidone 100 μg/ml 24 h
[7] = Group V: TGF-β1 5 ng/ml 12 h, then Pirfenidone 250 μg/ml 24 h
[8] = Group VI: TGF-β1 5 ng/ml 12 h, then Pirfenidone 500 μg/ml 24 h
[9] = Group D: TGF-β1 5 ng/ml 12 h, then compound (2) 100 μg/ml 24 h
[10] = Group E: TGF-β1 5 ng/ml 12 h, then compound (2) 200 μg/ml 24 h

`CC(=O)N[C@@H](CS)C(=O)O` [NAC, N-acetylcysteine, reference compound] gave a Relative survival rate ([1]; Group 3: H2O2 0.1 mM + NAC 2 mM, H2O2 0.1 mM alone = 38.9%) of 101.9% and a Relative survival rate ([1]; Group 5: H2O2 0.2 mM + NAC 2 mM) of 83.1%.

`Cc1ccc(=O)n(-c2ccccc2)c1` [Pirfenidone, reference compound] was tested, and the “Relative expression level (fold) BMP-7 protein” value (BMP-7 protein [2]; [6]) was 1.52 fold, the “Relative expression level (fold) BMP-7 protein” value (BMP-7 protein [2]; [7]) was 1.43 fold and the “Relative expression level (fold) BMP-7 protein” value (BMP-7 protein [2]; [8]) was 1.34 fold. For the same compound, the “Relative expression level (fold) Type I collagen” value (type I collagen; [6]) was 0.95 fold, the “Relative expression level (fold) Type I collagen” value (type I collagen; [7]) was 0.57 fold and the “Relative expression level (fold) Type I collagen” value (type I collagen; [8]) was 0.50 fold. The “Relative expression level (fold) TGF-β protein” value (TGF-β protein [3]; [6]) was 0.67 fold, the “Relative expression level (fold) TGF-β protein” value (TGF-β protein [3]; [7]) was 0.64 fold and the “Relative expression level (fold) TGF-β protein” value (TGF-β protein [3]; [8]) was 0.67 fold.

`CCCCC(=O)c1ccccc1C(=O)O` [compound (2)] was tested, and the “Relative expression level (fold) p-smad2/3 protein” value (p-smad2/3 protein; [9]) was 1.12 fold, the “Relative expression level (fold) p-smad2/3 protein” value (p-smad2/3 protein; [10]) was 1.05 fold and the “Relative expression level (fold) TGF-β protein” value (TGF-β protein [4]; [9]) was 0.46 fold. The “Relative expression level (fold) TGF-β protein” value (TGF-β protein [4]; [10]) was 0.29 fold, the “Relative expression level (fold) BMP-7 protein” value (BMP-7 protein [5]; [9]) was 0.11 fold and the “Relative expression level (fold) BMP-7 protein” value (BMP-7 protein [5]; [10]) was 0.08 fold.
